# Assay results from paper PMC6009858, “Tricyclic coumarin sulphonate derivatives with alkaline phosphatase inhibitory effects: in vitro and docking studies” (Journal of Enzyme Inhibition and Medicinal Chemistry, 2018).
# Experiments:
# [1] = biological target: T1, human tissue nonspecific alkaline phosphatase (h-TNAP) (Homo sapiens, UniProt P05186); experiment: Alkaline phosphatase inhibition assay (h-TNAP), CDP-star luminescence; type: biochemical; conditions: for IC50: IC50 ± SEM, n = 3, DEA buffer; for selectivity h-TNAP over h-IAP (in words): h-TNAP versus h-IAP
# T1 sequence (P05186 18-524): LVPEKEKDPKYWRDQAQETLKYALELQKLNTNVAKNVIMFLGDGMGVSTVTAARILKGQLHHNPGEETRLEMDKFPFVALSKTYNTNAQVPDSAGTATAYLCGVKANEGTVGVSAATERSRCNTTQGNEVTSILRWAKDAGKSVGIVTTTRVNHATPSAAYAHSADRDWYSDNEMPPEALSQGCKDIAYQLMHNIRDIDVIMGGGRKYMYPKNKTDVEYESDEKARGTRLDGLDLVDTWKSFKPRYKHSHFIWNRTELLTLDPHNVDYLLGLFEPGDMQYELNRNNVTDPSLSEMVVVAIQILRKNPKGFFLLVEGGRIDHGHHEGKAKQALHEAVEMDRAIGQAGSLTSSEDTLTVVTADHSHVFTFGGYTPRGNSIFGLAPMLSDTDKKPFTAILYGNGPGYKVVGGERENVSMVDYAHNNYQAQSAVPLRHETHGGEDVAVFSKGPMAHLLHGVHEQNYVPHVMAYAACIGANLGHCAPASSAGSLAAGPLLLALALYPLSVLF
# Procedure: The inhibition assay was performed by following the already reported method[18] and the inhibitory activity was measured at the final concentration of 200 µM in diethanolamine (DEA) buffer as discussed in our published article. The first step of the inhibition assay was the treatment of 10 µl of tested derivatives with 20 µl of h-TNAP (46 ng/well) or of h-IAP (57 ng/well). […] Then, 20 µl of CDP-star® substrate was added to each reaction mixture and signals were again measured as after-read, after 15–20 min of incubation. The data were scrutinised by PRISM 5.0 (GraphPad, San Diego, CA) software and the inhibitory concentration values (IC50 values) were attained as discussed earlier.
# [2] = biological target: T2, human intestinal alkaline phosphatase (h-IAP) (Homo sapiens, UniProt P09923); experiment: Alkaline phosphatase inhibition assay (h-IAP), CDP-star luminescence; type: biochemical; conditions: for IC50: IC50 ± SEM, n = 3, DEA buffer
# T2 sequence (P09923 20-528): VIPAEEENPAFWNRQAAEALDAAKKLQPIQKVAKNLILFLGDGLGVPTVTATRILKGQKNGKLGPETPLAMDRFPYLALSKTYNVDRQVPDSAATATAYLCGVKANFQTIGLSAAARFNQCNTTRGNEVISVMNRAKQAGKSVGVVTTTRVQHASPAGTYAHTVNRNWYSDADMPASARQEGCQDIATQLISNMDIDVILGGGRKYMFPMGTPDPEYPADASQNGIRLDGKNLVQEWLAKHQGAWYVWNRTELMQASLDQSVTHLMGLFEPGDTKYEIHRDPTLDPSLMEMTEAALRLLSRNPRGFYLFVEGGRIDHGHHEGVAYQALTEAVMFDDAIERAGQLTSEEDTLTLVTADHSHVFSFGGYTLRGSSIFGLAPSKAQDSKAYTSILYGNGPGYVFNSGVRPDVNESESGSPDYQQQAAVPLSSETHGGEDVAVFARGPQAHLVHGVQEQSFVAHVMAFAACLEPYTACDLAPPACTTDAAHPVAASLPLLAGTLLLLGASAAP
# Procedure: The inhibition assay was performed by following the already reported method[18] and the inhibitory activity was measured at the final concentration of 200 µM in diethanolamine (DEA) buffer as discussed in our published article. The first step of the inhibition assay was the treatment of 10 µl of tested derivatives with 20 µl of h-TNAP (46 ng/well) or of h-IAP (57 ng/well). The plates were incubated at 37 °C for 5–10 min, and luminescence signals were recorded by microplate reader (BioTek FLx800, Instruments, Inc., Winooski, VT). Then, 20 µl of CDP-star® substrate was added to each reaction mixture and signals were again measured as after-read, after 15–20 min of incubation. The data were scrutinised by PRISM 5.0 (GraphPad, San Diego, CA) software and the inhibitory concentration values (IC50 values) were attained as discussed earlier.
# colon cancer cell line = tested on: colon cancer cell line; design: method as in PMID 24360561, PMID 25016229, PMID 27779319; conditions: previously reported data; cited from earlier work
# [3] = design: method as in PMID 24360561, PMID 25016229, PMID 27779319; conditions: previously reported data; cited from earlier work
SMILES,IC50 [1],IC50 [2],further results
CCS(=O)(=O)Oc1ccc2c3c(c(=O)oc2c1)CCCCC3 [Compound 1b],2.13 ± 0.19 µM,2.71 ± 0.23 µM,–
O=c1oc2cc(OS(=O)(=O)c3ccccc3)ccc2c2c1CCCCC2 [Compound 1e],8.57 ± 0.73 µM,1.84 ± 0.19 µM,–
O=c1oc2cc(OS(=O)(=O)c3ccc(F)cc3)ccc2c2c1CCCCC2 [Compound 1i],1.06 ± 0.11 µM,0.45 ± 0.09 µM,antiproliferative effect against colon cancer cell line (in words) (colon cancer cell line): strongest antiproliferative derivatives; anti-inflammatory effects (in words) [3]: maximum anti-inflammatory effects; melting point: 147 to 149 °C
CCS(=O)(=O)Oc1ccc2c3c(c(=O)oc2c1)CCCCCC3 [Compound 1j],1.74 ± 0.14 µM,0.84 ± 0.09 µM,–
CCCS(=O)(=O)Oc1ccc2c3c(c(=O)oc2c1)CCCCCC3 [Compound 1k],1.91 ± 0.11 µM,3.37 ± 0.79 µM,–
Cc1ccc(S(=O)(=O)Oc2ccc3c4c(c(=O)oc3c2)CCCCCC4)cc1 [Compound 1m],1.59 ± 0.16 µM,2.12 ± 0.23 µM,antiproliferative effect against colon cancer cell line (in words) (colon cancer cell line): strongest antiproliferative derivatives; anti-inflammatory effects (in words) [3]: maximum anti-inflammatory effects
COc1cc2c3c(c(=O)oc2cc1OS(C)(=O)=O)CCCCC3 [Compound 1o],1.21 ± 0.11 µM,11.8 ± 1.91 µM,–
COc1cc2c3c(c(=O)oc2cc1OS(C)(=O)=O)CCCCCC3 [Compound 1p],1.49 ± 0.13 µM,1.51 ± 0.17 µM,–
CCCS(=O)(=O)Oc1cc2oc(=O)c3c(c2cc1OC)CCCCC3 [Compound 1q],4.31 ± 0.99 µM,> 100 µM,selectivity h-TNAP over h-IAP (in words) [1]: selective inhibitors of h-TNAP
CCCS(=O)(=O)Oc1cc2oc(=O)c3c(c2cc1OC)CCCCCC3 [Compound 1r],2.6 ± 0.49 µM,0.75 ± 0.07 µM,–
COc1cc2c3c(c(=O)oc2cc1OS(=O)(=O)c1ccc(C)cc1)CCCCCC3 [Compound 1v],0.64 ± 0.02 µM,1.45 ± 0.04 µM,–
COc1cc2c3c(c(=O)oc2cc1OS(=O)(=O)c1ccc(C(F)(F)F)cc1)CCCCCC3 [Compound 1x],1.29 ± 0.12 µM,1.63 ± 0.19 µM,–
Cc1ccc(S(=O)(=O)Oc2cc3oc(=O)c4c(c3cc2Cl)CCCCC4)cc1 [Compound 1za],2.22 ± 0.27 µM,1.11 ± 0.01 µM,–
"N[C@@H](Cc1ccccc1)C(=O)O [L-Phenylalanine, reference compound]",–,100 µM,–

# The next lines start with results.
IC50 [1],IC50 [2],SMILES,further results
0.48 ± 0.01 µM,1.98 ± 0.19 µM,CS(=O)(=O)Oc1ccc2c3c(c(=O)oc2c1)CCCCC3 [Compound 1a],–
1.52 ± 0.17 µM,0.91 ± 0.06 µM,CCCS(=O)(=O)Oc1ccc2c3c(c(=O)oc2c1)CCCCC3 [Compound 1c],–
0.98 ± 0.13 µM,0.96 ± 0.08 µM,O=c1oc2cc(OS(=O)(=O)C3CC3)ccc2c2c1CCCCC2 [Compound 1d],–
0.38 ± 0.01 µM,1.94 ± 0.11 µM,Cc1ccc(S(=O)(=O)Oc2ccc3c4c(c(=O)oc3c2)CCCCC4)cc1 [Compound 1f],–
1.13 ± 0.21 µM,2.82 ± 0.82 µM,O=c1oc2cc(OS(=O)(=O)c3ccccc3)ccc2c2c1CCCCCC2 [Compound 1l],–
1.26 ± 0.07 µM,3.88 ± 0.32 µM,COc1cc2c3c(c(=O)oc2cc1OS(=O)(=O)c1ccccc1)CCCCC3 [Compound 1s],–
2.68 ± 0.18 µM,0.83 ± 0.06 µM,COc1cc2c3c(c(=O)oc2cc1OS(=O)(=O)c1ccccc1)CCCCCC3 [Compound 1t],–
1.65 ± 0.13 µM,0.79 ± 0.05 µM,COc1cc2c3c(c(=O)oc2cc1OS(=O)(=O)c1ccc(C)cc1)CCCCC3 [Compound 1u],–
> 100 µM,> 100 µM,COc1cc2c3c(c(=O)oc2cc1OS(=O)(=O)c1ccc(C(F)(F)F)cc1)CCCCC3 [Compound 1w],–
> 100 µM,> 100 µM,CS(=O)(=O)Oc1cc2oc(=O)c3c(c2cc1Cl)CCCCC3 [Compound 1y],activity towards h-IAP (in words) [2]: inactive
5.73 ± 1.06 µM,> 100 µM,O=c1oc2cc(OS(=O)(=O)c3ccccc3)c(Cl)cc2c2c1CCCCC2 [Compound 1z],selectivity h-TNAP over h-IAP (in words) [1]: selective inhibitors of h-TNAP; activity towards h-IAP (in words) [2]: inactive
